Laboratory results as given in patent EP1911451A1, “Protein-kinase CK2 inhibitors and their therapeutic applications” (INSERM (Institut National de la Santé et de la Recherche …, priority 2006, dated 2008).
Read-outs that look alike come from different tables or passages of the source.

Assays:
[1] = target: T1, CK2α (Homo sapiens, UniProt P68400); test: Lineweaver-Burk inhibition plots (ATP and peptide competition); type: biochemical; conditions: for mode of inhibition: with respect to ATP or the phosphoacceptor peptide
Description: (§1) Lineweaver-Burk inhibition plots of CK2α in the presence of different concentrations of Quinobene (0; 0.1; 0.2; 0.4; 0.8 µM). • (A) variable concentrations of ATP with Peptide] = 500 µM. (B) variable concentrations of Peptide with [ATP] = 200 µM. […] Lineweaver-Burk inhibition plots of CK2α in the presence of different concentrations of CCB8 (0; 1.1; 2.2 µM for ATP competition assay; 0; 1.1 µM for peptide competition assay). (A) variable concentrations of ATP with [Peptide] = 166 µM. (B) variable concentrations of Peptide with [ATP] = 25 µM. […] A549 cells were treated for 48 hours with increasing concentrations of CCB8 (σ) or Naphtobene (ν). Cell viability was evaluated with the Cell Titer Glo kit (Promega).

[2] = tested on: A549 cells; test: Cancer cell viability (Cell Titer Glo kit); type: cell-based; conditions: increasing concentrations, 48 hours
Description: as §1
A549 cells were treated with increasing concentrations of TBB 4,5,6,7-TetraBromoBenzotriazole (Calbiochem®) or Quinobene for 48 hours and the cell viability was monitored.

[3] = target: T1, CK2α; test: in vitro CK2 kinase assay (inhibition of catalytic activity); type: biochemical
Description: as §1
4,4'-bis(8-hydroxy-5-sulfo-7-quinolineazo)stilbene-2,2'-disulfonic acid (Quinobene) or 4,4'-[(1-hydroxy-4-sulfo-2-naphtyl)azo] 2,2'-stilbenedisulfonic acid (Naphtobene) were obtained from the National Cancer Institute and screened for CK2 inhibitors using an in vitro CK2 kinase assay (Filhol et al., 1991).
CCB8 was tested in the in vitro CK2 assay.

[4] = tested on: non-small cell lung cancer cells (A549); test: Confocal microscopic analysis of cell uptake; type: cell-based; conditions: 100 µM, 48 hours, confocal microscopy
[5] = inhibition of CK2 catalytic activity, dose-dependent (Figure 2), read-out: half-maximal effective concentration
[6] = inhibition of the catalytic activity of recombinant CK2α, read-out: IC50

T1 sequence (P68400 whole entry): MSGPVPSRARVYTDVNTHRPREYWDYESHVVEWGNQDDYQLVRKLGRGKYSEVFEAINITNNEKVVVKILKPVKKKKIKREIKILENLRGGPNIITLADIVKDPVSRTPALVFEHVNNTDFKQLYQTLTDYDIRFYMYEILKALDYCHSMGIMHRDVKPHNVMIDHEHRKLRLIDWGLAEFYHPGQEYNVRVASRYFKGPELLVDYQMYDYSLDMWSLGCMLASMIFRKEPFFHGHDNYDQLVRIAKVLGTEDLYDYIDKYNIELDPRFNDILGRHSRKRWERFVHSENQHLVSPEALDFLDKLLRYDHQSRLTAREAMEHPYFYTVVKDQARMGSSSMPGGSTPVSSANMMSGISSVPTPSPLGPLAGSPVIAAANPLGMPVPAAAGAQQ

SMILES	Ki ([1]; deduced from Lineweaver-Burk graph (Figure 5), read-out: Ki constant)	mode of inhibition [1]	cell viability / proapoptotic efficacy [2]	IC50 ([3]; inhibition of the catalytic activity of recombinant CK2α)	IC50 [3, 5]	IC50 [3, 6]	cell permeability [4]
Nc1ccc(C(=O)O)cc1N=Nc1ccc(C=Cc2ccc(N=Nc3cc(C(=O)O)ccc3N)cc2S(=O)(=O)O)c(S(=O)(=O)O)c1 [CCB8]	85 nM	non-competitive inhibitor	potency correlates with its proapoptotic efficacy	600 nM			
O=S(=O)(O)c1cc(/N=N/c2cc(S(=O)(=O)O)c3cccnc3c2O)ccc1/C=C/c1ccc(/N=N/c2cc(S(=O)(=O)O)c3cccnc3c2O)cc1S(=O)(=O)O [Quinobene, 4,4'-bis(8-hydroxy-5-sulfo-7-quinolineazo)stilbene-2,2'-disulfonic acid]		non-competitive inhibitor	potency correlates with its proapoptotic efficacy		130 nM	130 nM	
O=S(=O)(O)c1cc(/N=N/c2cc(S(=O)(=O)O)c3ccccc3c2O)ccc1/C=C/c1ccc(/N=N/c2cc(S(=O)(=O)O)c3ccccc3c2O)cc1S(=O)(=O)O [Naphtobene, 4,4'-[(1-hydroxy-4-sulfo-2-naphtyl)azo] 2,2'-stilbenedisulfonic acid]			potency correlates with its proapoptotic efficacy		300 nM	300 nM	cell permeable
